Experimental data reported in patent US12415786B2, “Substituted 2-heteroarylaminobenzenes and the salts thereof and their use as herbicidal agents” (Bayer Aktiengesellschaft, priority 2019, dated 2025).

Legend:
Format in all cases: in vivo
Echinochloa crus-galli [1] = assay: Herbicidal post-emergence action (greenhouse pots), ECHCG; settings: 1280 g/ha, rated after about 3 weeks, 100% = plants have died, 0% = like untreated control plants
Excerpt: (§1) In the examples and tables below, the following abbreviations are used: • Undesired Plants/Weeds: • ABUTH: Abutilon theophrasti • AGSTE: Agrostis tenuis • AMARE Amaranthus retroflexus • ECHCG: Echinochloa crus-galli • LOLRI: Lolium rigidum • MATIN: Matricaria inodora • POAAN: Poa annua • SETVI: Setaria viridis • STEME: Stellaria media A. Herbicidal Early Post-Emergence Action Seeds of mono- and dicotyledonous weed plants were placed in plastic pots in sandy loam soil (doubly sown with in each case one species of mono- or dicotyledonous weed plants per pot), covered with soil and cultivated in a greenhouse under controlled growth conditions. 2 to 3 weeks after sowing, the test plants were treated at the one-leaf stage. The compounds of the invention, formulated in the form of wettable powders (WP) or as emulsion concentrates (EC), were applied onto the green parts of the plants as aqueous suspension or emulsion with addition of 0.5% additive at a water application rate of 600 liters per hectare (converted). After the test plants had been kept in the greenhouse under optimum growth conditions for about 3 weeks, the activity of the preparations was rated visually in comparison to untreated controls. For example, 100% activity=the plants have died, 0% activity=like untreated control plants. Tables B1-B8 below show the effects of selected compounds of the general formula (I) according to Table 1 above on various harmful plants and an application rate corresponding to 1280 g/ha, which were obtained by the experimental procedure mentioned above.

Amaranthus retroflexus [2] = assay: Herbicidal pre-emergence action (greenhouse pots), AMARE; settings: 1280 g/ha, visual scoring after about 3 weeks vs untreated controls
Excerpt: (§2) In the examples and tables below, the following abbreviations are used: • Undesired Plants/Weeds: • ABUTH: Abutilon theophrasti • AGSTE: Agrostis tenuis • AMARE Amaranthus retroflexus • ECHCG: Echinochloa crus-galli • LOLRI: Lolium rigidum • MATIN: Matricaria inodora • POAAN: Poa annua • SETVI: Setaria viridis • STEME: Stellaria media A. Herbicidal Early Post-Emergence Action Seeds of mono- and dicotyledonous weed plants were placed in plastic pots in sandy loam soil (doubly sown with one species each of mono- or dicotyledonous weed plants per pot) and covered with soil. The compounds of the invention, formulated in the form of wettable powders (WP) or as emulsion concentrates (EC), were then applied onto the surface of the covering soil as aqueous suspension or emulsion with addition of 0.5% additive at a water application rate of 600 liters per hectare (converted). After the treatment, the pots were placed in a greenhouse and kept under good growth conditions for the test plants. After about 3 weeks, the effect of the preparations was scored visually in comparison with untreated controls as percentages. For example, 100% activity=the plants have died, 0% activity=like untreated control plants. Tables C1-C8 below show the effects of selected compounds of the general formula (I) according to Table 1 above on various harmful plants and an application rate corresponding to 1280 g/ha, which were obtained by the experimental procedure mentioned above.

Stellaria media [3] = assay: Herbicidal pre-emergence action (greenhouse pots), STEME; settings: 1280 g/ha, visual scoring after about 3 weeks vs untreated controls
Excerpt: as §2

Poa annua [4] = assay: Herbicidal early post-emergence action (96-well microtiter plates), POAAN; settings: 1900 g/ha, scored 9 to 12 days after treatment, 100% = plants have died, 0% = like untreated control plants
Excerpt: (§3) In the examples and tables below, the following abbreviations are used: • Undesired Plants/Weeds: • ABUTH: Abutilon theophrasti • AGSTE: Agrostis tenuis • AMARE Amaranthus retroflexus • ECHCG: Echinochloa crus-galli • LOLRI: Lolium rigidum • MATIN: Matricaria inodora • POAAN: Poa annua • SETVI: Setaria viridis • STEME: Stellaria media A. Herbicidal Early Post-Emergence Action Seeds of monocotyledonous and dicotyledonous weed plants were placed in 96-well microtiter plates in quartz sand and grown in a climatized chamber under controlled growth conditions. 5 to 7 days after sowing, the test plants were treated at the cotyledon stage. The compounds according to the invention, formulated in the form of emulsion concentrates (EC), were applied with a water application rate of the equivalent of 2200 liters per hectare. After the test plants had been left to stand in the climatized chamber for 9 to 12 days under optimum growth conditions, the effect of the preparations was scored visually in comparison to untreated controls. Here, for example, 100% activity=the plants have died, 0% activity=like untreated control plants. Tables A1 to A2 below show the effects of selected compounds of the general formula (I) according to Table 1 above on various harmful plants and an application rate corresponding to 1900 g/ha, which were obtained by the experimental procedure mentioned above.

Amaranthus retroflexus [5] = assay: Herbicidal post-emergence action (greenhouse pots), AMARE; settings: 1280 g/ha, visual rating about 3 weeks after treatment vs untreated controls
Excerpt: as §1

Setaria viridis [6] = assay: Herbicidal pre-emergence action (greenhouse pots), SETVI; settings: 1280 g/ha, visual scoring after about 3 weeks vs untreated controls
Excerpt: as §2

Poa annua [7] = assay: Herbicidal pre-emergence action (greenhouse pots), POAAN; settings: 1280 g/ha, visual scoring after about 3 weeks vs untreated controls
Excerpt: as §2

Echinochloa crus-galli [8] = assay: Herbicidal pre-emergence action (greenhouse pots), ECHCG; settings: 1280 g/ha, visual scoring after about 3 weeks vs untreated controls
Excerpt: as §2

Setaria viridis [9] = assay: Herbicidal post-emergence action (greenhouse pots), SETVI; settings: 1280 g/ha, rated after about 3 weeks, 100% = plants have died, 0% = like untreated control plants
Excerpt: as §1

Abutilon theophrasti = assay: Herbicidal post-emergence action (greenhouse pots), ABUTH; settings: 1280 g/ha, visual rating about 3 weeks after treatment vs untreated controls
Excerpt: as §1

Poa annua [10] = assay: Herbicidal post-emergence action (greenhouse pots), POAAN; settings: 1280 g/ha, visual rating about 3 weeks after treatment vs untreated controls
Excerpt: as §1

Agrostis tenuis = assay: Herbicidal early post-emergence action (96-well microtiter plates), AGSTE; settings: 1900 g/ha, scored 9 to 12 days after treatment, 100% = plants have died, 0% = like untreated control plants
Excerpt: as §3

Stellaria media [11] = assay: Herbicidal post-emergence action (greenhouse pots), STEME; settings: 1280 g/ha, visual rating about 3 weeks after treatment vs untreated controls
Excerpt: as §1

Matricaria inodora = assay: Herbicidal pre-emergence action (greenhouse pots), MATIN; settings: 1280 g/ha, visual scoring after about 3 weeks vs untreated controls
Excerpt: as §2

SMILES	ECHCG (herbicidal activity, rated visually in comparison to untreated controls) (Echinochloa crus-galli [1])	herbicidal activity AMARE (Amaranthus retroflexus [2])	herbicidal activity STEME (Stellaria media [3])	POAAN (herbicidal activity, scored visually in comparison to untreated controls) (Poa annua [4])	herbicidal activity AMARE (Amaranthus retroflexus [5])	herbicidal activity SETVI (Setaria viridis [6])	herbicidal activity POAAN (Poa annua [7])	herbicidal activity ECHCG (Echinochloa crus-galli [8])	SETVI (herbicidal activity, rated visually in comparison to untreated controls) (Setaria viridis [9])	herbicidal activity ABUTH (Abutilon theophrasti)	herbicidal activity POAAN (Poa annua [10])	AGSTE (herbicidal activity, scored visually in comparison to untreated controls) (Agrostis tenuis)	herbicidal activity STEME (Stellaria media [11])	herbicidal activity MATIN (Matricaria inodora)
N#Cc1cccc(Nc2ncc(Cl)cn2)c1Oc1ccc(Cl)cc1 [Example 1-288]	100%	100%	100%	80%	100%	100%	100%	90%	90%	90%	100%	80%	–	–
N#Cc1cccc(Nc2ncccn2)c1Oc1ccc(C(F)(F)F)cc1 [Example 1-260]	–	100%	100%	100%	100%	100%	90%	90%	–	–	–	100%	90%	90%
CC(=O)N(C)c1cccc(Nc2ncc(Cl)cn2)c1Oc1ccc(F)cc1 [Example 1-369]	–	100%	100%	80%	100%	100%	–	–	–	–	100%	80%	–	–
Fc1ccc(Oc2ccccc2Nc2ncc(Cl)cn2)cc1 [Example 1-337]	90%	90%	–	100%	90%	–	100%	–	–	90%	–	100%	–	–
N#Cc1cccc(Nc2ncc(F)cn2)c1Oc1ccc(F)cc1F [Example 1-270]	90%	100%	100%	80%	100%	100%	100%	100%	90%	90%	–	80%	100%	100%
O=[N+]([O-])c1cccc(Nc2ncc(Cl)cn2)c1Oc1ccc(F)cc1 [Example 1-350]	–	100%	–	100%	100%	–	100%	–	–	–	100%	80%	–	100%
N#Cc1cccc(Nc2ncc(F)cn2)c1Oc1ccc(Cl)cc1F [Example 1-275]	90%	100%	100%	100%	100%	100%	100%	90%	90%	90%	–	80%	100%	90%
Fc1ccc(Oc2c(I)cccc2Nc2ncc(Cl)cn2)cc1 [Example 1-372]	–	100%	–	100%	–	100%	–	–	–	–	100%	100%	90%	–
N#Cc1cccc(Nc2ncc(Cl)cn2)c1Oc1ccc(F)cc1F [Example 1-289]	100%	100%	100%	80%	100%	100%	100%	–	90%	90%	–	80%	100%	100%
N#Cc1cccc(Nc2ncc(Cl)cn2)c1Oc1ccc(C(F)(F)F)cc1 [Example 1-298]	–	100%	100%	80%	100%	100%	100%	–	90%	90%	90%	80%	100%	90%
N#Cc1cccc(Nc2ncc(F)cn2)c1Oc1cccc(F)c1 [Example 1-266]	100%	100%	100%	100%	100%	100%	100%	90%	–	100%	–	80%	100%	100%
N#Cc1cccc(Nc2ncccn2)c1Oc1cccc(F)c1 [Example 1-247]	–	100%	100%	–	100%	100%	100%	90%	–	–	–	80%	–	–
Cc1cccc(Nc2ncc(Cl)cn2)c1Oc1ccc(F)cc1 [Example 1-239]	–	–	–	100%	100%	–	100%	–	–	–	100%	80%	100%	100%
